From patent US20240368135A1 (VERTEX PHARMACEUTICALS INCORPORATED, priority 2021, published 2024) come the findings set out here.

The target in one experiment is human NaV 1.8 (Homo sapiens, UniProt Q9Y5Y9). Put plainly: E-VIPR assay detecting and measuring NaV inhibition properties. The format is cell-based. Conditions: HEK cells expressing truncated human NaV 1.8; in the presence of human serum (compound numbers followed by *); read-out: IC50 in the E-VIPR Assay, performed in the presence of human serum. An outline of the steps: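 HEK cells expressing truncated, fully active human NaV1.8, with KIR2.1 BacMam co-transduction, were loaded with CC2-DMPE/DiSBAC6(3) voltage-sensing dyes for 20 min at room temperature. Compounds were tested in 11-point 3-fold dilutions (300 nM top final), optionally with 25% human serum, under electrical stimulation with FRET read-out.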
human NaV 1.8, sequence (Q9Y5Y9 126-399 limits assumed): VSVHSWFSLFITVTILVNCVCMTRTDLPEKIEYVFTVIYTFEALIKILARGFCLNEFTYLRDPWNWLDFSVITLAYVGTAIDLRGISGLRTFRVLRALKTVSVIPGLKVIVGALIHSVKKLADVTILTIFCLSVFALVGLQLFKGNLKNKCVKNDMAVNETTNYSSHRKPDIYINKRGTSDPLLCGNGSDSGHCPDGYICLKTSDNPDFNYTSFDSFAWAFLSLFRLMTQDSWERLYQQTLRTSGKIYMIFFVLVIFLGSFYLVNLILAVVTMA
human NaV 1.8, sequence (Q9Y5Y9 660-890 limits assumed): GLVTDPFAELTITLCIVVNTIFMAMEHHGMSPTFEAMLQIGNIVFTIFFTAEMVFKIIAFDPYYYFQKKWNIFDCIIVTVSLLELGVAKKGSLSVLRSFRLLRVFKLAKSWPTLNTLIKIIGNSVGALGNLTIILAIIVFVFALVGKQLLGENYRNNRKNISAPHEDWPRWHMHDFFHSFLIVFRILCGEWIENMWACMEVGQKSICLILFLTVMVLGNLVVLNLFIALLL
human NaV 1.8, sequence (Q9Y5Y9 1148-1722 limits assumed): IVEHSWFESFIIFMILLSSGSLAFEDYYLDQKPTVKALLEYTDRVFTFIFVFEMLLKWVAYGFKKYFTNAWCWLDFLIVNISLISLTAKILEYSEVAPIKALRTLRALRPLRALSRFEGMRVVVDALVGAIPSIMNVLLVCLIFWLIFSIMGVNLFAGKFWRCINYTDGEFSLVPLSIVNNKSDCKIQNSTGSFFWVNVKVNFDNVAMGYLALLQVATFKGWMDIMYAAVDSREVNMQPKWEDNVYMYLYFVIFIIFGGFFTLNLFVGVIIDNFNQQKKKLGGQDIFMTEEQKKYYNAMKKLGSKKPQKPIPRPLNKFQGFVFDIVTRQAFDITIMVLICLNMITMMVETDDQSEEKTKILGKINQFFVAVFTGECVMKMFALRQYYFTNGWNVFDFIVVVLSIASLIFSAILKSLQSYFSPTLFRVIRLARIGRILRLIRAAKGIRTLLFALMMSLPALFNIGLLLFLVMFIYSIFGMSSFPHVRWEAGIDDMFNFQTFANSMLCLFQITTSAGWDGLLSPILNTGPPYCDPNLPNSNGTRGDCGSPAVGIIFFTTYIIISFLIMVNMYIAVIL
On to `COc1c(C2C(C(=O)Nc3ccnc(C(C)(O)CO)c3)OC(C)(C)C2C)ccc(F)c1F` (single isomer, unassigned) [Compound 725, rel-3-(3,4-difluoro-2-methoxyphenyl)-N-(2-(1,2-dihydroxypropan-2-yl)pyridin-4-yl)-4,5,5-trimethyltetrahydrofuran-2-carboxamide], for which the IC50 is no less than 1000 nM.
In the case of `COc1c(C2C(C(=O)Nc3ccnc(C(O)C(C)O)c3)OC(C)(C(F)(F)F)C2C)ccc(F)c1C` (single isomer, unassigned) [Compound 149], the IC50 lay within 100 to 1000 nM.
For `COc1cc(F)ccc1[C@H]1C[C@@](C)(C(F)(F)F)O[C@@H]1C(=O)Nc1ccnc(S(C)(=O)=O)c1` (stereo in doubt) [Compound 713, rel-(2S,3R,5S)-3-(4-fluoro-2-methoxyphenyl)-5-methyl-N-(2-(methylsulfonyl)pyridin-4-yl)-5-(trifluoromethyl)tetrahydrofuran-2-carboxamide], the half-inhibitory concentration (IC50) is no less than 1000 nM.

Staying with this experiment, now noted: HEK cells expressing truncated human NaV 1.8; no human serum; read-out: IC50 in the E-VIPR Assay.
As to `Cc1nnn2ccc(NC(=O)[C@@H]3O[C@@](C)(C(F)(F)F)[C@@H](C)[C@H]3c3ccc(F)c(F)c3OCCO)cc12` [Compound 574, (2R,3S,4S,5R)-3-(3,4-difluoro-2-(2-hydroxyethoxy)phenyl)-4,5-dimethyl-N-(3-methyl-[1,2,3]triazolo[1,5-a]pyridin-5-yl)-5-(trifluoromethyl)tetrahydrofuran-2-carboxamide], the IC50 fell in the range of 10 to 100 nM.
As to `COc1c([C@H]2[C@H](C(=O)NCC3CCOC3)O[C@@](C)(C(F)(F)F)[C@H]2C)ccc(F)c1F` (stereo partly drawn) [Compound 279, (2R,3S,4S,5R)-3-(3,4-difluoro-2-methoxyphenyl)-4,5-dimethyl-N-((tetrahydrofuran-3-yl)methyl)-5-(trifluoromethyl)tetrahydrofuran-2-carboxamide], the IC50 was no less than 1000 nM.
On to `COc1c([C@H]2[C@H](C(=O)NC3CCN(C(N)=O)CC3)O[C@@](C)(C(F)(F)F)[C@H]2C)ccc(F)c1F` [Compound 303, 4-((2R,3S,4S,5R)-3-(3,4-difluoro-2-methoxyphenyl)-4,5-dimethyl-5-(trifluoromethyl)tetrahydrofuran-2-carboxamido)piperidine-1-carboxamide], for which the IC50 is no less than 1000 nM.
`COc1c([C@@H]2C[C@](C)(C(F)(F)F)O[C@H]2C(=O)Nc2ccnc([C@@H](O)CO)c2)ccc(F)c1C` (single isomer, unassigned) [Compound 706]: the half-inhibitory concentration (IC50) is 10 to 100 nM.
With `COc1c([C@H]2[C@H](C(=O)Nc3ccnc(OC(F)F)c3)O[C@@](C)(C(F)(F)F)[C@H]2C)ccc(F)c1F` [Compound 189, (2R,3S,4S,5R)-3-(3,4-difluoro-2-methoxyphenyl)-N-(2-(difluoromethoxy)pyridin-4-yl)-4,5-dimethyl-5-(trifluoromethyl)tetrahydrofuran-2-carboxamide], the IC50 fell in the range of 10 to 100 nM.
For `COc1c([C@H]2[C@H](C(=O)Nc3ccc(CC4CCOCC4)nc3)O[C@@](C)(C(F)(F)F)[C@H]2C)ccc(F)c1F` [Compound 404, (2R,3S,4S,5R)-3-(3,4-difluoro-2-methoxyphenyl)-4,5-dimethyl-N-(6-((tetrahydro-2H-pyran-4-yl)methyl)pyridin-3-yl)-5-(trifluoromethyl)-tetrahydrofuran-2-carboxamide], the IC50 was in the range of 100 to 1000 nM.
Regarding `COc1c([C@H]2[C@H](C(=O)NCCc3c(C)noc3C)O[C@@](C)(C(F)(F)F)[C@H]2C)ccc(F)c1F` [Compound 287, (2R,3S,4S,5R)-3-(3,4-difluoro-2-methoxyphenyl)-N-(2-(3,5-dimethylisoxazol-4-yl)ethyl)-4,5-dimethyl-5-(trifluoromethyl)tetrahydrofuran-2-carboxamide], the IC50 is no less than 1000 nM.
As for `COc1c([C@H]2[C@H](C(=O)Nc3ccnc(C4(O)CCOC4)c3)O[C@@](C)(C(F)(F)F)[C@H]2C)ccc(F)c1F` (single isomer, unassigned) [Compound 220, rel-(2R*,3S*,4S*,5R*)-3-(3,4-difluoro-2-methoxyphenyl)-N-(2-(3-hydroxy-tetrahydrofuran-3-yl)pyridin-4-yl)-4,5-dimethyl-5-(trifluoromethyl)tetrahydrofuran-2-carboxamide], the IC50 was less than 10 nM.
In the case of `COc1c([C@H]2[C@H](C(=O)Nc3ccnc(N4CC(N)CC4=O)c3)O[C@@](C)(C(F)(F)F)[C@H]2C)ccc(F)c1F` (single isomer, unassigned) [Compound 495, rel-(2R*,3S*,4S*,5R*)-N-(2-(4-amino-2-oxopyrrolidin-1-yl)pyridin-4-yl)-3-(3,4-difluoro-2-methoxyphenyl)-4,5-dimethyl-5-(trifluoromethyl)tetrahydrofuran-2-carboxamide], the IC50 is less than 10 nM.
As to `Cc1ncc(NC(=O)[C@@H]2O[C@@](C)(C(F)(F)F)[C@@H](C)[C@H]2c2ccc(F)c(F)c2OCCO)c(C)n1` [Compound 543, (2R,3S,4S,5R)-3-(3,4-difluoro-2-(2-hydroxyethoxy)phenyl)-N-(2,4-dimethylpyrimidin-5-yl)-4,5-dimethyl-5-(trifluoromethyl)tetrahydrofuran-2-carboxamide], the IC50 was no less than 1000 nM.
In the case of `COc1c([C@H]2[C@H](C(=O)Nc3ccnc([S+](C)[O-])c3)O[C@@](C)(C(F)(F)F)[C@H]2C)ccc(F)c1F` (single isomer, unassigned) [Compound 8], the IC50 is less than 10 nM.
For the compound `CNS(=O)(=O)c1ccc(NC(=O)[C@@H]2O[C@@](C)(C(F)(F)F)[C@@H](C)[C@H]2c2ccc(F)c(F)c2OC)cn1` [Compound 236, (2R,3S,4S,5R)-3-(3,4-difluoro-2-methoxy-phenyl)-4,5-dimethyl-N-[6-(methylsulfamoyl)-3-pyridyl]-5-(trifluoromethyl)tetrahydrofuran-2-carboxamide], the half-maximal inhibitory concentration (IC50) was in the range of 10 to 100 nM.
The same measure, in the same setting: under `COc1c([C@H]2[C@H](C(=O)NCc3ccc4ncccc4c3)O[C@@](C)(C(F)(F)F)[C@H]2C)ccc(F)c1F` [Compound 294, (2R,3S,4S,5R)-3-(3,4-difluoro-2-methoxyphenyl)-4,5-dimethyl-N-(quinolin-6-ylmethyl)-5-(trifluoromethyl)tetrahydrofuran-2-carboxamide] stands no less than 1000 nM.
On to `COCCNCc1cc(NC(=O)C2OC(C)(C(F)(F)F)C(C)C2c2ccc(F)c(F)c2OC)ccn1` (stereo not shown) [Compound 60, 3-(3,4-difluoro-2-methoxy-phenyl)-N-[2-[(2-methoxyethylamino)methyl]-4-pyridyl]-4,5-dimethyl-5-(trifluoromethyl)tetrahydrofuran-2-carboxamide], for which the IC50 was less than 10 nM.
For the compound `COc1c([C@H]2[C@H](C(=O)Nc3ccnc(CO)c3)O[C@@](C)(C(F)(F)F)[C@H]2C)ccc(F)c1F` (single isomer, unassigned) [Compound 14], the IC50 is less than 10 nM.
On to `CCOc1c([C@@H]2[C@@H](C(=O)Nc3ccn4nnnc4c3)O[C@](C)(C(F)(F)F)[C@@H]2C)ccc(F)c1C` (stereo in doubt) [Compound 122, rel-(2S,3R,4R,5S)-3-(2-ethoxy-4-fluoro-3-methylphenyl)-4,5-dimethyl-N-(tetrazolo[1,5-a]pyridin-7-yl)-5-(trifluoromethyl)tetrahydrofuran-2-carboxamide], for which the IC50 fell in the range of 100 to 1000 nM.
Regarding `Cc1nn(C(F)F)cc1NC(=O)[C@@H]1O[C@@](C)(C(F)(F)F)[C@@H](C)[C@H]1c1ccc(F)c(F)c1CN1CC2(COC2)C1` [Compound 670, (2R,3S,4S,5R)-3-(2-((2-oxa-6-azaspiro[3.3]heptan-6-yl)methyl)-3,4-difluorophenyl)-N-(1-(difluoromethyl)-3-methyl-1H-pyrazol-4-yl)-4,5-dimethyl-5-(trifluoromethyl)tetrahydrofuran-2-carboxamide], the IC50 was in the range of 10 to 100 nM.
As to `COc1c([C@H]2[C@H](C(=O)Nc3ccc(C#N)nc3)O[C@@](C)(C(F)(F)F)[C@H]2C)ccc(F)c1F` [Compound 192, (2R,3S,4S,5R)-N-(6-cyanopyridin-3-yl)-3-(3,4-difluoro-2-methoxyphenyl)-4,5-dimethyl-5-(trifluoromethyl)tetrahydrofuran-2-carboxamide], the IC50 was in the range of 10 to 100 nM.
For the compound `Cc1nn(C(F)F)cc1NC(=O)[C@@H]1O[C@@](C)(C(F)(F)F)[C@@H](C)[C@H]1c1ccc(F)c(F)c1CCN(C)C` [Compound 678, (2R,3S,4S,5R)—N-(1-(difluoromethyl)-3-methyl-1H-pyrazol-4-yl)-3-(2-(2-(dimethylamino)ethyl)-3,4-difluorophenyl)-4,5-dimethyl-5-(trifluoromethyl)tetrahydrofuran-2-carboxamide], the concentration for half-maximal inhibition (IC50) lay in the range of 100 to 1000 nM.
In the case of `COCCOc1c([C@H]2[C@H](C(=O)Nc3ccnc(CCO)c3)O[C@@](C)(C(F)(F)F)[C@H]2C)ccc(F)c1F` [Compound 648, (2R,3S,4S,5R)-3-[3,4-difluoro-2-(2-methoxyethoxy)phenyl]-N-[2-(2-hydroxyethyl)-4-pyridyl]-4,5-dimethyl-5-(trifluoromethyl)tetrahydrofuran-2-carboxamide], the IC50 was less than 10 nM.
`COc1c([C@H]2[C@H](C(=O)NC3CC(F)(F)C3)O[C@@](C)(C(F)(F)F)[C@H]2C)ccc(F)c1F` [Compound 280, (2R,3S,4S,5R)-3-(3,4-difluoro-2-methoxyphenyl)-N-(3,3-difluorocyclobutyl)-4,5-dimethyl-5-(trifluoromethyl)tetrahydrofuran-2-carboxamide]: the IC50 lay in the range of 100 to 1000 nM.
Consider `COc1c([C@H]2[C@H](C(=O)Nc3ccc4cnnn4c3)O[C@@](C)(C(F)(F)F)[C@H]2C)ccc(F)c1C(F)F` (stereo in doubt) [Compound 161, rel-(2R,3S,4S,5R)—N-([1,2,3]triazolo[1,5-a]pyridin-6-yl)-3-(3-(difluoromethyl)-4-fluoro-2-methoxyphenyl)-4,5-dimethyl-5-(trifluoromethyl)tetrahydrofuran-2-carboxamide], for which the IC50 was less than 10 nM.
